Measured values as given in PubChem BioAssay (NCI).
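Exposure lasted 48 hours, with cells grown in 96-well plates and compounds tested at five concentrations. GI50 is the concentration that inhibits growth by half. TGI marks complete inhibition of growth.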

Experiments:
Assay in all cases: NCI-60 cell line screen, 48 h
CAKI-1 renal = tested on: CAKI-1 renal
HOP-92 NSCLC = tested on: HOP-92 NSCLC
MALME-3M melanoma = tested on: MALME-3M melanoma
NCI-H522 lung = tested on: NCI-H522 lung
OVCAR-3 ovarian = tested on: OVCAR-3 ovarian
OVCAR-8 ovarian = tested on: OVCAR-8 ovarian
RXF 393 renal = tested on: RXF 393 renal
SF-295 CNS = tested on: SF-295 CNS
SNB-75 CNS = tested on: SNB-75 CNS
A498 renal = tested on: A498 renal

| Compound | TGI (CAKI-1 renal) | TGI (HOP-92 NSCLC) | TGI (MALME-3M melanoma) | TGI (NCI-H522 lung) | TGI (OVCAR-3 ovarian) | TGI (OVCAR-8 ovarian) | TGI (RXF 393 renal) | TGI (SF-295 CNS) | TGI (SNB-75 CNS) | TGI (A498 renal) | GI50 (A498 renal) | GI50 (CAKI-1 renal) | GI50 (HOP-92 NSCLC) | GI50 (MALME-3M melanoma) | GI50 (NCI-H522 lung) | GI50 (OVCAR-3 ovarian) | GI50 (OVCAR-8 ovarian) | GI50 (RXF 393 renal) | GI50 (SF-295 CNS) | GI50 (SNB-75 CNS) |
| --- | --- | --- | --- | --- | --- | --- | --- | --- | --- | --- | --- | --- | --- | --- | --- | --- | --- | --- | --- | --- |
| O=C1CN2C(Cl)(Cl)C2(c2ccccc2)c2cc(Cl)ccc2N1CC(F)(F)F (stereo not given) | > 100 µM | 41.1 µM | 87 µM | 42.7 µM | 39 µM | > 100 µM | 63.6 µM | > 100 µM | 51.2 µM |  |  |  |  |  |  |  |  |  |  |  |
| CC1=C[C@]2(CC(C)C3C(CC4(C)C5CCC6C(C)(C)C(=O)CC[C@@]67C[C@@]57CC[C@]34C)O2)OC1=O (stereo not given in full) | 62.2 µM | 45.7 µM | > 100 µM |  |  | > 100 µM | 21.8 µM | 89.5 µM | 42.1 µM | > 100 µM |  |  |  |  |  |  |  |  |  |  |
| CCOc1ccc(/C=C/[N+](=O)[O-])cc1 | > 100 µM | 28.1 µM | 36.9 µM | 28 µM | 15.8 µM | 27.1 µM | 3.56 µM | 41.8 µM | 30.9 µM | 11.5 µM | 2.79 µM | 37 µM | 12.9 µM | 19 µM | 13.2 µM | 4.53 µM | 13.2 µM | 1.79 µM | 19.2 µM | 13 µM |
| O=C(Nc1ccc(Cl)cc1)/C(Cc1cccc[n+]1[O-])=N\Nc1ccc([N+](=O)[O-])cc1[N+](=O)[O-] | > 100 µM | > 100 µM | > 100 µM | > 100 µM | > 100 µM | > 100 µM | > 100 µM | > 100 µM | > 100 µM | > 100 µM |  |  |  |  |  |  |  |  |  |  |
| COc1c2c(cc3c(CCc4ccccc4)cc(=O)oc13)CCC(C)(C)O2 |  | > 100 µM | > 100 µM |  | > 100 µM | > 100 µM | > 100 µM | > 100 µM | > 100 µM |  |  |  |  |  |  |  |  |  |  |  |
| CN1C2C=C(c3ccccc3)CC1CC2 (stereo not given) |  | > 100 µM | > 100 µM | > 100 µM | > 100 µM | > 100 µM | > 100 µM | > 100 µM | > 100 µM | > 100 µM |  |  |  |  |  |  |  |  |  |  |
| CCOc1ccc2c(ccc(/C=C\c3cc(C)c4cccnc4c3O)[n+]2C)c1 | 29.3 µM | 3.36 µM | 14 µM | 5.14 µM | 2 µM | 38.8 µM | 18.9 µM | 20.7 µM | 15 µM | 9.1 µM |  |  |  |  |  |  |  |  |  |  |
| Nc1ncnc2c1ncn2C1CCC(CO)O1 (stereo not given) | > 100 µM | > 86.4 µM | > 100 µM | > 100 µM | > 100 µM | > 79.4 µM | > 100 µM | > 79.4 µM | > 100 µM | > 100 µM |  |  |  |  |  |  |  |  |  |  |
| CO/N=C1/c2sccc2[C@H](NC(=O)C(F)(F)F)[C@@H]1O | > 100 µM | > 100 µM | > 100 µM |  | > 100 µM | > 100 µM | > 100 µM | > 100 µM | > 100 µM | > 100 µM |  |  |  |  |  |  |  |  |  |  |
| O=C1Nc2ccccc2Nc2nc3cccccc-3c21 | > 100 µM | > 100 µM | > 100 µM | > 100 µM | > 100 µM | > 100 µM | > 100 µM | > 100 µM | > 100 µM |  |  |  |  |  |  |  |  |  |  |  |
| COc1ccc(/C=N/NC(=O)NCCCN(C)C)cc1 |  |  | > 100 µM | > 100 µM | > 100 µM | > 100 µM | > 100 µM | > 100 µM |  | > 100 µM |  |  |  |  |  |  |  |  |  |  |
| O=C(Nc1nc2ccc([N+](=O)[O-])cc2[n+]([O-])n1)C(F)(F)F | > 100 µM | > 100 µM | 20.4 µM | > 100 µM |  | > 100 µM | > 100 µM | > 100 µM | > 100 µM | 65.5 µM |  |  |  |  |  |  |  |  |  |  |
| [C-]#[O+].[Cl][Sn]([Cl])[Cl].[Cl][Sn]([Cl])[Cl].[Pt].c1ccncc1 | > 100 µM | > 100 µM | > 100 µM | > 65.3 µM | > 100 µM | > 100 µM | > 100 µM | > 100 µM | > 100 µM | > 100 µM |  |  |  |  |  |  |  |  |  |  |
| c1ccc2c(c1)nc1n2CSC1 | > 100 µM | > 100 µM | > 100 µM | > 100 µM | > 100 µM | > 100 µM |  | > 100 µM | > 100 µM | > 100 µM |  |  |  |  |  |  |  |  |  |  |
| CN1CCN(Cc2ccc(NC(=O)c3ccc(C#N)c(C#Cc4cnc(N)c5ncccc45)c3)cc2C(F)(F)F)CC1 | 5.04 µM | 58.1 µM |  | 28.6 µM | 10.4 µM |  |  | 78.3 µM |  | 10.6 µM | 3.25 µM | 1.91 µM | 12.2 µM |  | 2.94 µM | 3.34 µM |  |  | 22.1 µM |  |
| CC(/C=C/c1ccc([N+](=O)[O-])o1)=N/N1CC(CN2CCOCC2)OC1=O (stereo not given) | 40.7 µM | 30.5 µM | 41.3 µM |  | 42.8 µM | 35.3 µM |  | > 100 µM |  | 83.9 µM |  |  |  |  |  |  |  |  |  |  |
| CC(C)=CCc1c(C)cc2cc3c(c(O)c2c1O)C(O)=CC(=O)C3(CC=C(C)C)C/C=C(\C)CO (stereo not given) | 91.3 µM | 75.6 µM | 63.8 µM | 65.2 µM | 76.3 µM | 76.8 µM | 63.4 µM | 87.9 µM | 92.8 µM | 15.2 µM |  |  |  |  |  |  |  |  |  |  |
| COc1cc2c3c(n(CCN(C)C)c(=O)c2cc1OC)-c1cc2c(cc1C3=O)OCO2 | 44.3 µM | > 100 µM | > 52.6 µM | > 100 µM | 38.4 µM | > 100 µM | > 57.9 µM | > 41.7 µM | > 100 µM | 87.1 µM | 15 µM | 0.747 µM | 26.7 µM | 6.17 µM | 2.51 µM | 8.31 µM | 1.4 µM |  | 0.511 µM | 8.22 µM |
| Cc1nc2ccccc2c(=O)n1CC(=O)O | > 100 µM | > 100 µM | > 100 µM | > 100 µM | > 100 µM | > 100 µM | > 100 µM | > 100 µM | > 100 µM | > 100 µM |  |  |  |  |  |  |  |  |  |  |
| O=C(O)c1cc(=O)[nH]c(=S)[nH]1 | > 100 µM | > 100 µM | > 100 µM | > 100 µM | > 100 µM | > 100 µM | > 100 µM | > 100 µM | > 100 µM | > 100 µM |  |  |  |  |  |  |  |  |  |  |
| CC1(C)CCc2cc3c(-c4ccccc4)cc(=O)oc3cc2O1 | > 100 µM | 72.3 µM | > 100 µM | > 100 µM | > 100 µM | > 100 µM |  | > 100 µM | 71.5 µM | > 100 µM |  |  |  |  |  |  |  |  |  |  |
| CCCCN(CCCC)CCCCNc1c(C)cnc2cc(Cl)ccc12 |  | 36.2 µM | 36.1 µM | 35.6 µM | > 100 µM | > 100 µM | 31 µM | 50.8 µM |  | 86.5 µM |  |  |  |  |  |  |  |  |  |  |
| CCOP(=O)(OCC)C(Cc1ccc(OC)c(OC)c1)N=C(c1ccccc1)c1ccccc1 (stereo not given) | > 100 µM | > 100 µM |  | 97.3 µM | > 100 µM | > 100 µM | > 100 µM | > 100 µM | 81.1 µM | > 100 µM |  |  |  |  |  |  |  |  |  |  |
| Cc1ccc(S(=O)(=O)Oc2cc(S(=O)(=O)O)cc3cc(S(=O)(=O)O)cc(N)c23)cc1 | > 100 µM | > 100 µM | > 100 µM | > 100 µM | > 100 µM | > 100 µM | > 100 µM | > 100 µM | > 100 µM | > 100 µM |  |  |  |  |  |  |  |  |  |  |
| CCN(CC)CCCC(Nc1c2ccc(Cl)cc2nc2ccc(OC)cc12)c1ccc(F)cc1 (stereo not given) | 3.79 µM |  | 3.68 µM | 4.58 µM | 4.44 µM | 10.4 µM | 3.13 µM | 3.16 µM | 2.66 µM | 21.4 µM | 7.37 µM | 1.73 µM |  | 1.99 µM | 2.01 µM | 2.16 µM | 3.27 µM | 1.51 µM | 1.6 µM | 1.21 µM |
| Cc1cccc2c(N)c3cccc(C(=O)NCCN(C)C)c3nc12 | 1.08 µM | 2.94 µM | 0.606 µM | 0.0737 µM | 0.929 µM | 2.01 µM | 0.479 µM | 0.615 µM | 0.615 µM | 0.516 µM |  |  |  |  |  |  |  |  |  |  |
| Cc1ccc(/C(=C/C=C(C#N)C#N)Sc2cc(Cl)ccc2Cl)cc1 | 19.9 µM |  | 35.5 µM | 22.1 µM | 11.8 µM |  | 27.8 µM | 16 µM | 38.7 µM |  |  |  |  |  |  |  |  |  |  |  |
